Experimental data taken from paper PMC3929664, “A Panel of Diverse Assays to Interrogate the Interaction between Glucokinase and Glucokinase Regulatory Protein, Two Vital Proteins in Human Disease” (PLoS ONE, 2014).

How the values were obtained:
[1] = biological target: T1, recombinant human GST-GCK (Homo sapiens, UniProt P35557); assay type: biochemical; conditions: 4 nM GCK, 37.5 mM glucose, fit accounting for substrate inhibition, mean ± SD; read-out: ATP Km
T1 construct: GST (glutathione-S-transferase); made in house
T1 sequence (P35557 1-465): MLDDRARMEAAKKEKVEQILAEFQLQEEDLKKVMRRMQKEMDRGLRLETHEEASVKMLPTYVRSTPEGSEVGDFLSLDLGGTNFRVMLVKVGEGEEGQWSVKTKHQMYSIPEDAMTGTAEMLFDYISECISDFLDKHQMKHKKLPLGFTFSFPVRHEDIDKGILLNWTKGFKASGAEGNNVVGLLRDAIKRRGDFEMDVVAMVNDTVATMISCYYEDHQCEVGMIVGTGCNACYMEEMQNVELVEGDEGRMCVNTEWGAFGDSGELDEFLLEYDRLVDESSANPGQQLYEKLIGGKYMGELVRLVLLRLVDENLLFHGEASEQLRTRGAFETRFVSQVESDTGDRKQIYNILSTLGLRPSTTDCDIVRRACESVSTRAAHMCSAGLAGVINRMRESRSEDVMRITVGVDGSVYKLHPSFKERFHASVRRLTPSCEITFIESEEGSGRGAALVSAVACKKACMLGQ
Method: The ATP Km for GCK was determined by fluorescent monitoring of NADH oxidation using a dual-coupling system whereby generation of ADP by GCK was coupled to oxidation of NADH via PK and LDH (Figure S2A) [37]. The final reaction contained 4 nM GCK, glucose in five-fold excess of the calculated glucose S0.5 (37.5 mM), and ATP concentrations ranging from 0 to 2 mM. The reaction was initiated by addition of ATP and read immediately, then every 10 seconds for 5 minutes. Each ATP concentration was tested in quadruplicate. The initial slopes (v0) for each concentration were determined by linear regression (GraphPad Prism, GraphPad Software, San Diego, CA, USA), and then v0 was plotted against ATP concentration (Figure S2B).
(A) Reaction scheme of PK/LDH dual-coupled assay. The reaction included 4 nM GCK. (B) Reaction progress over the first 60 seconds was monitored by the loss of NADH fluorescence at 450 nm using a ViewLux Microplate Imager and results analyzed by linear regression. Resultant slopes from regression were plotted and the curve fit using nonlinear regression accounting for substrate inhibition in GraphPad Prism to give a best-fit Km value.

[2] = system: GCK (recombinant GST-GCK); conditions: cited from earlier work
[3] = system: cryopreserved human hepatocytes; assay: GCK translocation in cryopreserved human hepatocytes (GKRP-positive cells); assay type: cell-based
Method: Plateable cryopreserved human hepatocytes (female, lot number TRZ; male, lot number FOS) were plated at 50,000 cells/well in Biocoat black/clear collagen-coated 96-well plates in InVitroGRO™ CP medium supplemented with Torpedo™ Antibiotic Mix. After hepatocyte attachment, media was changed to InVitroGRO™ HI medium with Torpedo™ Antibiotic Mix.
Hepatocytes were fixed in 4% PFA for 15 minutes. PFA was then removed and cells were washed twice in Dulbecco’s phosphate-buffered saline (DPBS) containing 0.2% Triton-X and then permeabilized for 10 minutes with DPBS/0.2% Triton-X. Cells were then treated for 30 minutes with Odyssey protein blocking buffer (Li-cor Biosciences, Lincoln, NE, USA) before addition of a mouse monoclonal IgG2a GKRP antibody [GCKR (A-8); Santa Cruz Biotechnology, Inc., Santa Cruz, CA, USA]. The antibody (200 µg/ml) was diluted (1∶50) in protein blocking buffer and incubated with cells for 120 minutes. Cells were then washed (4×5 minutes) in PBS/0.1% Tween-20 before addition of protein blocking buffer containing Alexa Fluor® 647 Goat Anti-Mouse IgG (H+L) (Invitrogen; 1∶500 dilution) and rabbit polyclonal GCK antibody [1∶30 dilution; GCK (H-88) 200 µg/ml; Santa Cruz Biotechnology]. After 60 minutes, cells were washed with PBS/0.1% Tween-20 (4×5 minutes). Following a 60-minute incubation with blocking buffer and goat anti-rabbit IgG-HRP (1∶500 dilution; sc-2004; Santa Cruz Biotechnology), cells were washed with PBS/0.1% Tween-20 (4×5 minutes). Fluorescent detection of the HRP-conjugated secondary antibody was enabled using a 10-minute incubation with fluorescein-conjugated tyramide from the Tyramide Signal Amplification kit (PerkinElmer). The tyramide solution was prepared in DMSO (Sigma-Aldrich) according to the manufacturer’s instructions. Cells were then washed (3×5 minutes) with PBS/0.1% Tween-20 before a final five-minute wash with PBS/0.1% Tween-20 containing 0.02 mg/ml Hoechst 33342 Trihydrochloride Trihydrate (Hoechst; Invitrogen) for visualization of nuclei. After Hoechst staining, all cells were then stored in 100 µl DPBS at 4°C. […]

[4] = system: cryopreserved pooled male Sprague-Dawley rat hepatocytes; assay: GCK translocation in cryopreserved rat hepatocytes (high-content imaging); assay type: cell-based; conditions: 2 hours
Method: Plateable cryopreserved pooled male Sprague-Dawley rat hepatocytes (lot number NPD) were thawed and plated (40,000 cells/well) in Biocoat black/clear collagen-coated 96-well plates (BD Biosciences, San Jose, CA, USA) in InVitroGRO™ CP Rat medium supplemented with Torpedo™ Antibiotic Mix (BioreclamationIVT). After hepatocyte attachment, media was changed to InVitroGRO™ HI Rat medium with Torpedo™ Antibiotic Mix.
Hepatocytes were fixed in 4% PFA for 15 minutes. PFA was then removed and cells were washed twice in Dulbecco’s phosphate-buffered saline (DPBS) containing 0.2% Triton-X and then permeabilized for 10 minutes with DPBS/0.2% Triton-X. Cells were then treated for 30 minutes with Odyssey protein blocking buffer (Li-cor Biosciences, Lincoln, NE, USA) before addition of a mouse monoclonal IgG2a GKRP antibody [GCKR (A-8); Santa Cruz Biotechnology, Inc., Santa Cruz, CA, USA]. The antibody (200 µg/ml) was diluted (1∶50) in protein blocking buffer and incubated with cells for 120 minutes. Cells were then washed (4×5 minutes) in PBS/0.1% Tween-20 before addition of protein blocking buffer containing Alexa Fluor® 647 Goat Anti-Mouse IgG (H+L) (Invitrogen; 1∶500 dilution) and rabbit polyclonal GCK antibody [1∶30 dilution; GCK (H-88) 200 µg/ml; Santa Cruz Biotechnology]. After 60 minutes, cells were washed with PBS/0.1% Tween-20 (4×5 minutes). […]

[5] = biological target: T2, GCK-GKRP interaction (recombinant human GST-GCK and FLAG-GKRP) (Homo sapiens, UniProt P35557+Q14397); assay: HTRF assay of the GCK-GKRP protein-protein interaction; assay type: binding; conditions: 5 nM GCK, 5 nM GKRP, 2 µM S6P, mean ± SD; read-out: IC50 (inhibition of GCK-GKRP interaction, HTRF signal)
T2 construct: made in house
T2 sequence (P35557 1-465): T1 sequence (P35557 1-465)
T2 sequence (Q14397 1-625): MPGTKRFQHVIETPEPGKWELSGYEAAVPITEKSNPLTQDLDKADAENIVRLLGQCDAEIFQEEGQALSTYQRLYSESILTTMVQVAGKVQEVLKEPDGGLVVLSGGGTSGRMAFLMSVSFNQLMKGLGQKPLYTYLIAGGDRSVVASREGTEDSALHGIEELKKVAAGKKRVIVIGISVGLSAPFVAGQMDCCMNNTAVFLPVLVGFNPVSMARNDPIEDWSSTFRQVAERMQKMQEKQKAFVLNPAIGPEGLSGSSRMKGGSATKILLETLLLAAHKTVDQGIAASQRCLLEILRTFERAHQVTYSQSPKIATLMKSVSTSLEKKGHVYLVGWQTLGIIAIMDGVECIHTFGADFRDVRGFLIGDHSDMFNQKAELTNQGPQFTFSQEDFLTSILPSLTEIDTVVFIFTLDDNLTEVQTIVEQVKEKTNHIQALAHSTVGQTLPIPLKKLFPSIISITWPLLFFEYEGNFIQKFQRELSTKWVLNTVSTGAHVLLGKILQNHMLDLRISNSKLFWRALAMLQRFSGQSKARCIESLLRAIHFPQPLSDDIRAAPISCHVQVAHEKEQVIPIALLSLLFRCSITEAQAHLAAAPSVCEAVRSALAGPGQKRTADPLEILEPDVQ
Method: Homogeneous time-resolved fluorescence (HTRF) technology (Cisbio Bioassays, Bedford, MA, USA) was utilized for antibody-based FRET measurement of the GCK-GKRP protein-protein interaction. Recombinant human GST-GCK and FLAG-GKRP were mixed in an HTRF assay buffer containing 2 mM MgCl2, 25 mM KCl, 25 mM HEPES, 1 mM DTT, 0.1% Tween-20, and 0.025% BSA (all buffer components Sigma-Aldrich). The pH was adjusted to 7.1 by drop-wise addition of 10 N NaOH. […] For assays in 1536-well plate format, the two reaction mixes were dispensed using an Aurora Discovery BioRAPTR Flying Reagent Dispenser (BioRAPTR; Beckman Coulter, Inc., Brea, CA, USA) (3 µl/well for protein-containing buffer; 1 µl/well for detection antibodies) into white 1536-well solid-bottom medium binding plates (Greiner Bio-One, Monroe, NC, USA). […] For the LOPAC^1280 library screen, column 1 was all components with DMSO (maximum signal) and column 3 was no GKRP with DMSO (minimum signal). These two control columns were used for data normalization. The final HTS protocol is in Table S1, and the data have been deposited in PubChem (AID 743207).
S6P, F1P, and glucose were dissolved in water; GKAs were dissolved in DMSO.
The assay was validated using a range (0–150 nM) of GCK and GKRP concentrations at manufacturer-recommended detection antibody concentrations ( Figure 2A ). Fluorescence was measured immediately upon mixing, and every 30 minutes thereafter for a total of 240 minutes. The plate was covered and incubated at room temperature throughout the course of the experiment.
The assay was miniaturized to 1536-well plate format and, concurrently, specificity of detection was validated by using known modulators of the GCK-GKRP interaction.
The EC80 value represents a compromise between the desire for large enough signal enhancement and the need to maintain a binding level that is not too saturated so that it can be outcompeted by compounds of interest. Additionally, this approach enables detection of specific competitors of S6P, which would likely be acting on GKRP as desired, and not on GCK. […] Both glucose and GKAs interfere with the binding of GKRP to GCK and decrease GKRP inhibition, [44], [45], while F1P binds to GKRP and is competitive with respect to S6P [46].

[6] = biological target: T1, recombinant human GST-GCK; assay: GCK glucose S0.5 and Hill coefficient by luminescent ADP-Glo assay; assay type: biochemical; conditions: 4 nM GCK, 4 mM ATP, 45 minutes
Method: The glucose S0.5 and Hill coefficient for GCK were calculated using a luminescent assay measuring the production of ADP by GCK (ADP-Glo™ Kinase Assay, Promega Corporation, Madison, WI, USA; see below). Luminescence was measured at 18 glucose concentrations from 0.1 to 100 mM (two separate experiments; each n = 8 for each concentration).
The assay included 4 nM GCK and 4 mM ATP and was terminated after 45 minutes. Each data point is mean ± SEM (n = 8). Curves were fit using nonlinear regression with the allosteric sigmoidal option in GraphPad Prism to determine the S0.5 and Hill coefficient.

[7] = biological target: T3, Recombinant glutathione-S-transferase (GST)-tagged human glucokinase (human, UniProt P35557 1-465); assay: AlphaScreen or HTRF; 1536-well plate, 4 µl final volume; 5 nM GST-GCK and 5 nM FLAG-GKRP in solution, without S6P or with S6P (2 µM for the inhibitor tests); anti-GST K and anti-FLAG XL 665 antibodies; HTRF assay buffer pH 7.1; room temperature, 60 minutes; signal ratio 665 nm/615 nm; conditions: both partners purified
T3 construct: glucokinase (GCK), human; also called GCK; GST-GCK; source: prepared as described previously [24], [35]
T3 sequence (looked up): T1 sequence (P35557 1-465)

[8] = biological target: T3, Recombinant glutathione-S-transferase …; assay: AlphaScreen or HTRF; 384-well plate; GST-GCK and FLAG-GKRP each titrated 0-150 nM in solution; anti-GST K (donor) and anti-FLAG XL 665 (acceptor) antibodies; 2 mM MgCl2, 25 mM KCl, 25 mM HEPES, 1 mM DTT, 0.1% Tween-20, 0.025% BSA, pH 7.1; room temperature, read at t = 60 minutes; signal ratio 665 nm/615 nm; conditions: both partners purified

Molecule: Nc1ncnc2c1ncn2[C@@H]1O[C@H](COP(=O)(O)OP(=O)(O)OP(=O)(O)O)[C@@H](O)[C@H]1O [ATP]
- Km [1]: 400 ± 110 µM
- Km ([2]; recombinant GST-GCK, read-out: ATP Km, previously described): 400 µM

Molecule: OC[C@H]1OC(O)[C@H](O)[C@@H](O)[C@@H]1O (some centres unmarked) [glucose]
- increase in number of translocation-positive cells ([3]; 25 mM glucose compared to 2.5 mM glucose, both lots (TRZ, FOS)): approximately 10%
- cells with translocated GCK ([4]; 2.5 mM glucose): 25%
- cells with translocated GCK ([4]; 16.7 mM glucose): 84%
- Hill coefficient, previously reported [2]: 1.6–1.7
- glucose S0.5, previously reported [2]: 7.5 to 10 mM
- IC50 [5]: 16 ± 1.4 mM
- Hill coefficient ([6]; mean ± SD): 1.53±0.1
- glucose S0.5 ([6]; mean ± SD across two experiments): 7.5 ± 0.8 mM

Molecule: OC[C@@H](O)[C@@H](O)[C@H](O)[C@@H](O)CO [sorbitol]
- GCK translocation response ([3]; lot FOS): no translocation was observed
- GCK translocation response ([3]; lot TRZ, 2.5 mM glucose): approximately four-fold

B1: Recombinant FLAG-tagged human glucokinase regulatory protein (natural protein, UniProt Q14397 1-625, looked up)
chain: T2 sequence (Q14397 1-625)
notes: glucokinase regulatory protein (GKRP), encoded by GCKR, human; also called GKRP; FLAG-GKRP; source: prepared as described previously [24], [35]
- HTRF signal ratio (665 nm/615 nm) at 5 nM of both proteins, no S6P [7]: 1.87
- HTRF signal ratio (665 nm/615 nm) at 5.56 nM of both proteins [8]: 1.77
